Patent US5726203A, “Qinghaosu derivatives against AIDS” (priority 1993, dated 1998)

Columns and labels:
[1] = cited from earlier work
HIV-1 (MT4) = experiment: Anti-HIV effect on MT4 cells, virus antigen expression (immunoenzymatic method); type: cell-based
Description: The virus used was HIV-1 which had been obtained from Professor Montagnier of the Pastear Institute, France. The virus titer used in the experiment was 1×10^4 TCID50 /ml. The cell culture used was CEM cell line which was cultivated in the HIV laboratory of Institute of Virology, Chinese Academy of Preventive Medicine, for cultivation storage of HIV-1.
The compounds used in the experiment were qinghaosu, dihydroqinghaosu, Artesunate, Artemether, dihydroqinghaosu-methylcarbamate, dihydroqinghaosu-benzenecarbamate, qinghaosu-morpholinyl propylether maleate, dihydroqinghaosu-diethyl amino ethyl ether maleate, deoxyqinghaosu-morpholinyl ethyl ether maleate, qinghaosu-morpholinyl propanol ether maleate, qinghaosu-3,5-dimonpholinyl methyl-4-hydroxy benzyl ether maleate, dihydroqinghaosu-m-chlorobenzoate, qinghaosu-3-pyrrolidinylmethyl-4-hydroxybenzoate oxalate, and qinghaosu-3-morpholinylmethyl-4-hydroxybenzoate oxalate. […] The concentration of the original solution of these compounds were all 1 mg/ml.
(§1) a. Freshly cultured MT4 cells (5×10^5 /ml) were co-cultivated with the virus fluid (10^3 TCID50 /ml) in a CO2 incubator at 37° C. for 1-1.5 hours. RPMI 1640 complete medium (containing 10% Bovine serum and antibiotics, such as penicillin) was used to wash the unbound virus.
(§2) Complete medium was added to correct the concentration for use.
(§3) The experiment was carried out on the plates with 96 wells. 0.1 ml of the above-mentioned infected MT4 cell suspension was added into each well, and then 0.1 ml of various concentrations of the drugs were added. […] Each concentration of the drugs was added into two wells. Both the experiment group and the control group were incubated in a CO2 incubator at 37° C. The drug solution were changed 3 days later, and the following observations were carried out 6 days afterwards.
b. Observation on the growth situation of cells. Trypan blue dye was used to observe the quantity of live cells in each group.
(§4) c. Determination of the virus antigen expression. The immunoenzymatic method was used to examine the virus antigen expression. Cells from each group were separately smeared in two wells. They were fixed with cold acetone, HIV-positive serum was dropped into the wells. After incubated in a CO2 incubator at 37° C. for 30 minutes, they were washed with PBS for 3 times. Enzyme-labelled SPA was dropped into the wells. They were incubated in the same condition for 30 minutes, washed with PBS for 3 times, and then put in substrate solution to stain for 2-3 minutes, washed with distilled water, and observed under microscope. Normal cells were colorless, whereas virus-carrying cells appeared browrish red.
The mark used were as follows:
The experiment was repeated two to three times.
The concentration of the original fluid of these compounds were all 1 mg/ml. 0.1 ml was taken and added into 0.1 ml of virus-carrying cell suspension, thus the reaction concentrations were as follows: in the original fluid group, 0.1 mg/0.2 ml, i.e., 0.5 mg/ml; in 1×10^-1group, 0.05 mg/ml; in 1×10^-2 group, 0.005 mg/ml; in 1×10^-3 group, 0.0005 mg/ml, i.e., 0.5 μg/ml; and on the analogy of this.

U937 HIV-1 [2] = experiment: Inhibition effect on HIV-1 infected U937 cells, activity of reverse transcriptase; type: cell-based; conditions: control 24502
Description: (§5) Furthermore, a part of the compounds according to the present invention were used to test their inhibition effect on U937 cell line (macrophage cell line)according to the methods in Experiment 1.

U937 HIV-1 [3] = experiment: Inhibition effect on HIV-1 infected U937 cells (macrophage cell line), HIV antigen test (IE); type: cell-based; conditions: for Antigen test (IE): U937 HIV-1
Description: as §1, §2, §3, §4, §5

HIV = conditions: cited from earlier work
[4] = test system: virus within infected macrophages; conditions: cited from earlier work
Plasmodium Berghei = experiment: Peters' four day inhibition test in mice, erythrocytic stage of Plasmodium Berghei; type: in vivo; conditions: once a day D0-D3, Hybrid Kunming strain mice, read-out: SD50 (the source's name)
Description: Effect on Erythrocytic Stage of Plasmodium Berghei 1. "Four day inhibition test" in mice To determinate the SD50 with Peters' "four day inhibition test". Hybrid Kunming strain mice, body weight 18-22 g, were inculated with 1×10^7 parasites infected RBC intraperitoneally on D0. Dihydroqinghaosu-methylcarbamate, dihydroqinghaosu-butylcarbamate, dihydroqinghaosu-benzenecarbamate and dihydroqinghaosu-4-nitrobenzenecarbamate with different concentration were given once a day from D0 -D3. Blood smears from mouse's tail were made on D4, stained with Gimsa reagent and examined under microscope to count the infected and uninfected erthrocyte to get infected rate. Inhibitory rates of different dosages were calculated by following formula. The SD50 was calculated by the simplified probit analysis: [formula]

Acute toxicity in mice = type: in vivo; conditions: for LD50: mouse, in vivo, po
Description: Animals: Hybrid swiss strain mice (provided by Animal House of Institute of Chinese Mateia Media, China Academy of Traditional Chinese Medicine), 20-22 grams, less than 6 weeks age of both sexes fed in laboretory for 3-5 days observation and a random taking food and drinking.
Drugs: Dihydroqinghaosu-methylcarbamate and dihydroqinghaosu-benzenecarbamate.
Above two drugs in powder form were dissolved into peanut oil. The biggest dose were 2000 mg/kg and 2161 mg/kg respectively. The distances between two dose groups were 0.7 and 0.68 respectively, with 5 dose groups each drugs.
Method: The mice were given single dose of above compound respectively intragastrically, the acute intoxication manifestrations were observed the LD value (LD5, LD50 and LD95) and B value were determined by three days mortality.

[5] = Subacute toxicologic study; conditions: in vivo, read-out: basic safe dosage
HIV-infected macrophages = conditions: cited from earlier work
[6] = F + M, single dose intragastrically
[7] = F, single dose intragastrically
[8] = M, single dose intragastrically

In the case of `Cc1cn([C@H]2C[C@H](N=[N+]=[N-])[C@@H](CO)O2)c(=O)[nH]c1=O` [AZT, 3'-azido-3'-deoxythymidine, reference compound], the toxicity after use ([1]; 4-6 weeks after the use of AZT) is listed as “inhibition of bone marrow appears, then severe anemia develops”, the “effect on HIV-1 (MT4), virus antigen expression” value (“effect on HIV-1 (MT4)” for short) (HIV-1 (MT4); 1 × 10^-1 (50 μg/ml)) is listed as “- (positive cells were not seen in the whole well)” and the “virus-carrying (pink) cells on the smear” value (HIV-1 (MT4); 1×10^-1, 1×10^-2, 1×10^-3 group) is listed as “entirely no pink cells”. For the same compound, the “effect on HIV-1 (MT4)” value (HIV-1 (MT4); 1 × 10^-2 (5 μg/ml)) was “- (positive cells were not seen in the whole well)”, the “effect on HIV-1 (MT4)” value (HIV-1 (MT4); 1 × 10^-3 (0.5 μg/ml)) was “- (positive cells were not seen in the whole well)” and the “Activity of reverse transcription (CPM)” value (U937 HIV-1 [2]; 1 μg/ml) was 10865 CPM. For the same compound, the “Antigen test (IE)” value (U937 HIV-1 [3]; 1 μg/ml) was “+ (there were 2-3 or more positive cells in the whole well)”, the “inhibition on U937 infected HIV-1” value (U937 HIV-1 [3]; from Table 2) was “does not show the inhibition” and the “anti-HIV activity in vitro” value (HIV) was “found to possess anti-HIV activity in vitro”. The “inhibitory effect on the virus within infected macrophages” value [4] was “does not exert inhibitory effect on the virus within infected macrophages”.
In the case of `CC1CCC2C(C)C(OC(=O)Nc3ccccc3)OC3OC4(C)CCC1C32OO4` (stereo not shown) [Dihydroqinghaosu-benzenecarbamate], the ED50 (Plasmodium Berghei) is reported as 0.29 mg/kg, the “Death distribution of mice, exp./death” value (Acute toxicity in mice; 480 mg/kg, female) is reported as 6/0 and the “Death distribution of mice, exp./death” value (Acute toxicity in mice; 480 mg/kg, female + male) is reported as 12/1. The “Death distribution of mice, exp./death” value (Acute toxicity in mice; 480 mg/kg, male) was 6/1, the “Death distribution of mice, exp./death” value (Acute toxicity in mice; 686 mg/kg, female) was 6/1 and the “Death distribution of mice, exp./death” value (Acute toxicity in mice; 686 mg/kg, female + male) was 12/3. The “Death distribution of mice, exp./death” value (Acute toxicity in mice; 686 mg/kg, male) was 6/2, the “Death distribution of mice, exp./death” value (Acute toxicity in mice; 980 mg/kg, female) was 6/2 and the “Death distribution of mice, exp./death” value (Acute toxicity in mice; 980 mg/kg, female + male) was 12/4. For the same compound, the “Death distribution of mice, exp./death” value (Acute toxicity in mice; 980 mg/kg, male) was 6/2, the “Death distribution of mice, exp./death” value (Acute toxicity in mice; 1400 mg/kg, female) was 6/4 and the “Death distribution of mice, exp./death” value (Acute toxicity in mice; 1400 mg/kg, female + male) was 12/7. For the same compound, the “Death distribution of mice, exp./death” value (Acute toxicity in mice; 1400 mg/kg, male) was 6/3, the “Death distribution of mice, exp./death” value (Acute toxicity in mice; 2000 mg/kg, female) was 6/6 and the “Death distribution of mice, exp./death” value (Acute toxicity in mice; 2000 mg/kg, female + male) was 12/12. For the same compound, the “Death distribution of mice, exp./death” value (Acute toxicity in mice; 2000 mg/kg, male) was 6/6, the LD5 (Acute toxicity in mice; [6]) was 463.33 mg/kg and the LD95 (Acute toxicity in mice; [6]) was 2452.08 mg/kg. For the same compound, the “slope (B)” value (Acute toxicity in mice; [6]) was 4.546, the LD5 (Acute toxicity in mice; [7]) was 603.91 mg/kg and the LD95 (Acute toxicity in mice; [7]) was 1993.51 mg/kg. The “slope (B)” value (Acute toxicity in mice; [7]) was 6.343, the LD5 (Acute toxicity in mice; [8]) was 352.10 mg/kg and the LD95 (Acute toxicity in mice; [8]) was 3069.59 mg/kg. For the same compound, the “slope (B)” value (Acute toxicity in mice; [8]) was 3.498, the LD50 (Acute toxicity in mice; [6]) was 1070 mg/kg and the LD50 (Acute toxicity in mice; [7]) was 1100 mg/kg. For the same compound, the LD50 (Acute toxicity in mice; P.O. (per os)) was 1060 mg/kg, the LD50 (Acute toxicity in mice; single dose intragastrically) was 1040 mg/kg and the “effect on HIV-1 (MT4)” value (HIV-1 (MT4); 1 × 10^-1 (50 μg/ml)) was “- (positive cells were not seen in the whole well)”. For the same compound, the “effect on HIV-1 (MT4)” value (HIV-1 (MT4); 1 × 10^-2 (5 μg/ml)) was “- (positive cells were not seen in the whole well)”, the “effect on HIV-1 (MT4)” value (HIV-1 (MT4); 1 × 10^-3 (0.5 μg/ml)) was “- (positive cells were not seen in the whole well)” and the “effect on HIV-1 (MT4)” value (HIV-1 (MT4); 1 × 10^-4 (0.05 μg/ml)) was “± (there were only 1-2 doubtful positive cells in whole well)”. For the same compound, the “inhibition on HIV” value (HIV-1 (MT4); according to Table 1) was “distinct inhibition on HIV”, the “Activity of reverse transcription (CPM)” value (U937 HIV-1 [2]; 50 μg/ml) was 2305 CPM and the “Antigen test (IE)” value (U937 HIV-1 [3]; 50 μg/ml) was “- (positive cells were not seen in the whole well)”. For the same compound, the NOAEL [5] was 54 mg/kg/day.
For Trichosanthin, the “neurotoxicity in clinical trial” value ([1]; clinical trial) is listed as “neurotoxicity in clinical trial, and in severe cases temporary dementia and even coma appeared” and the “toxic substance from treated HIV-infected macrophages” value (HIV-infected macrophages) is listed as “produced and released a soluble toxic substance which might exert serious destructive effect to human brain cells”.
